Assay results reported in patent US9695155B2, “Herbicidal substituted pyrimidinyloxy benzene compounds” (E. I. DU PONT DE NEMOURS AND COMPANY, priority 2013, dated 2017).

Tests used:
barnyardgrass [1] = assay: Test A preemergence; assay type: in vivo, Echinochloa crus-galli
Outline: (§1)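 Compounds in non-phytotoxic solvent with surfactant applied as soil spray preemergence, or postemergence to plants 2-10 cm at one- to two-leaf stage, in loam/sand. After approximately 10 days in greenhouse, injury rated visually versus untreated controls, 0 (no effect) to 100 (complete control).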

large (Lg) crabgrass [2] = assay: Test A preemergence; assay type: in vivo, Digitaria sanguinalis
Outline: as §1

giant foxtail [3] = assay: Test A preemergence; assay type: in vivo, Setaria faberii
Outline: as §1

morningglory [4] = assay: Test A preemergence; assay type: in vivo, Ipomoea spp.
Outline: as §1

pigweed [5] = assay: Test A preemergence; assay type: in vivo, Amaranthus retroflexus
Outline: as §1

velvetleaf [6] = assay: Test A preemergence; assay type: in vivo, Abutilon theophrasti
Outline: as §1

wheat [7] = assay: Test A preemergence; assay type: in vivo, Triticum aestivum
Outline: as §1

corn [8] = assay: Test A preemergence; assay type: in vivo, Zea mays
Outline: as §1

barnyardgrass [9] = assay: Test A postemergence; assay type: in vivo, Echinochloa crus-galli
Outline: as §1

large (Lg) crabgrass [10] = assay: Test A postemergence; assay type: in vivo, Digitaria sanguinalis
Outline: as §1

giant foxtail [11] = assay: Test A postemergence; assay type: in vivo, Setaria faberii
Outline: as §1

morningglory [12] = assay: Test A postemergence; assay type: in vivo, Ipomoea spp.
Outline: as §1

pigweed [13] = assay: Test A postemergence; assay type: in vivo, Amaranthus retroflexus
Outline: as §1

velvetleaf [14] = assay: Test A postemergence; assay type: in vivo, Abutilon theophrasti
Outline: as §1

wheat [15] = assay: Test A postemergence; assay type: in vivo, Triticum aestivum
Outline: as §1

corn [16] = assay: Test A postemergence; assay type: in vivo, Zea mays
Outline: as §1

rice = assay: Test B flooded paddy test; assay type: in vivo, Oryza sativa; conditions: Flood, 250 g ai/ha; 0 to 100 scale where 0 is no effect and 100 is complete control
Outline: (§2)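 Visual ratings on a 0 to 100 scale, where 100 means complete control, compared treated plants with controls after 13 to 15 days in a greenhouse. Treatment went into paddy water 3 cm deep over the soil, applied to plants at the 2-leaf stage.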

sedge, umbrella = assay: Test B flooded paddy test; assay type: in vivo, Cyperus difformis; conditions: Flood, 250 g ai/ha; 0 to 100 scale where 0 is no effect and 100 is complete control
Outline: as §2

Heteranthera limosa = assay: Test B flooded paddy test; assay type: in vivo; conditions: Flood, 250 g ai/ha; 0 to 100 scale where 0 is no effect and 100 is complete control
Outline: as §2

barnyardgrass [17] = assay: Test B flooded paddy test; assay type: in vivo, Echinochloa crus-galli; conditions: Flood, 250 g ai/ha; 0 to 100 scale where 0 is no effect and 100 is complete control
Outline: as §2

[18] = 125 g ai/ha, 0 to 100 scale where 0 is no effect and 100 is complete control
[19] = 500 g ai/ha, 0 to 100 scale, 0 no effect, 100 complete control, approx. 10 days
[20] = 500 g ai/ha, 0 to 100 scale, 0 no effect, 100 complete control
[21] = 500 g ai/ha, 0 to 100 scale where 0 is no effect and 100 is complete control
[22] = 125 g ai/ha, 0 to 100 scale, 0 no effect, 100 complete control

SMILES: Cc1cnc(Oc2ccccc2-n2cc(Br)cn2)nc1 [Compound 9]
- Barnyardgrass plant response rating (barnyardgrass [1]; [18]): 30
- Barnyardgrass plant response rating (barnyardgrass [1]; [19]): 100
- Crabgrass, Large plant response rating (large (Lg) crabgrass [2]; [18]): 90
- Crabgrass, Large plant response rating (large (Lg) crabgrass [2]; [19]): 100
- Foxtail, Giant plant response rating (giant foxtail [3]; [18]): 80
- Foxtail, Giant plant response rating (giant foxtail [3]; [19]): 90
- Morningglory plant response rating (morningglory [4]; [18]): 0
- Morningglory plant response rating (morningglory [4]; [19]): 0
- Pigweed plant response rating (pigweed [5]; [18]): 100
- Pigweed plant response rating (pigweed [5]; [19]): 100
- Velvetleaf plant response rating (velvetleaf [6]; [18]): 80
- Velvetleaf plant response rating (velvetleaf [6]; [19]): 100
- Wheat plant response rating (wheat [7]; [18]): 0
- Wheat plant response rating (wheat [7]; [19]): 0
- Corn plant response rating (corn [8]; [18]): 0
- Corn plant response rating (corn [8]; [19]): 20
- Plant response rating, Barnyardgrass (barnyardgrass [9]; [18]): 30
- Plant response rating, Barnyardgrass (barnyardgrass [9]; [20]): 90
- Plant response rating, Crabgrass, Large (large (Lg) crabgrass [10]; [18]): 30
- Plant response rating, Crabgrass, Large (large (Lg) crabgrass [10]; [20]): 80
- Plant response rating, Foxtail, Giant (giant foxtail [11]; [18]): 30
- Plant response rating, Foxtail, Giant (giant foxtail [11]; [20]): 90
- Plant response rating, Morningglory (morningglory [12]; [18]): 20
- Plant response rating, Morningglory (morningglory [12]; [20]): 30
- Plant response rating, Pigweed (pigweed [13]; [18]): 80
- Plant response rating, Pigweed (pigweed [13]; [20]): 90
- Plant response rating, Velvetleaf (velvetleaf [14]; [18]): 100
- Plant response rating, Velvetleaf (velvetleaf [14]; [20]): 100
- Plant response rating, Wheat (wheat [15]; [18]): 0
- Plant response rating, Wheat (wheat [15]; [20]): 30
- Plant response rating, Corn (corn [16]; [18]): 20
- Plant response rating, Corn (corn [16]; [20]): 50
- Plant response rating, Rice (rice): 0
- Plant response rating, Sedge, Umbrella (sedge, umbrella): 60
- Plant response rating, Ducksalad (Heteranthera limosa): 80
- Plant response rating, Barnyardgrass (barnyardgrass [17]): 0

SMILES: O=Cc1cccc(Oc2ncc(Br)cn2)c1-n1cc(Cl)cn1 [Compound 206]
- Barnyardgrass plant response rating (0 to 100 scale, 0 is no effect, 100 is complete control) (barnyardgrass [1]; 125 g ai/ha): 0
- Barnyardgrass plant response rating (barnyardgrass [1]; [21]): 0
- Crabgrass, Large plant response rating (0 to 100 scale) (large (Lg) crabgrass [2]; 125 g ai/ha): 0
- Crabgrass, Large plant response rating (large (Lg) crabgrass [2]; [21]): 0
- Foxtail, Giant plant response rating (0 to 100 scale) (giant foxtail [3]; 125 g ai/ha): 0
- Foxtail, Giant plant response rating (giant foxtail [3]; [21]): 0
- Morningglory plant response rating (0 to 100 scale) (morningglory [4]; 125 g ai/ha): 0
- Morningglory plant response rating (morningglory [4]; [21]): 0
- Pigweed plant response rating (0 to 100 scale) (pigweed [5]; 125 g ai/ha): 0
- Pigweed plant response rating (pigweed [5]; [21]): 50
- Velvetleaf plant response rating (0 to 100 scale) (velvetleaf [6]; 125 g ai/ha): 0
- Velvetleaf plant response rating (velvetleaf [6]; [21]): 0
- Wheat plant response rating (0 to 100 scale) (wheat [7]; 125 g ai/ha): 0
- Wheat plant response rating (wheat [7]; [21]): 0
- Corn plant response rating (0 to 100 scale) (corn [8]; 125 g ai/ha): 0
- Corn plant response rating (corn [8]; [21]): 0
- Barnyardgrass plant response rating (barnyardgrass [9]; [18]): 0
- Plant response rating, Barnyardgrass (barnyardgrass [9]; [21]): 0
- Crabgrass, Large plant response rating (large (Lg) crabgrass [10]; [18]): 0
- Plant response rating, Crabgrass, Large (large (Lg) crabgrass [10]; [21]): 0
- Foxtail, Giant plant response rating (giant foxtail [11]; [18]): 0
- Plant response rating, Foxtail, Giant (giant foxtail [11]; [21]): 0
- Morningglory plant response rating (morningglory [12]; [18]): 0
- Plant response rating, Morningglory (morningglory [12]; [21]): 0
- Pigweed plant response rating (pigweed [13]; [18]): 0
- Plant response rating, Pigweed (pigweed [13]; [21]): 0
- Velvetleaf plant response rating (velvetleaf [14]; [18]): 10
- Plant response rating, Velvetleaf (velvetleaf [14]; [21]): 20
- Wheat plant response rating (wheat [15]; [18]): 0
- Plant response rating, Wheat (wheat [15]; [21]): 0
- Corn plant response rating (corn [16]; [18]): 0
- Plant response rating, Corn (corn [16]; [21]): 0
- Plant response rating, Rice (rice): 0
- Plant response rating, Sedge, Umbrella (sedge, umbrella): 0
- Plant response rating, Ducksalad (Heteranthera limosa): 0
- Plant response rating, Barnyardgrass (barnyardgrass [17]): 0

SMILES: CC1(C)OB(c2cnn(-c3c(C#N)cccc3Oc3ncc(Cl)cn3)c2)OC1(C)C [Compound 285]
- Barnyardgrass plant response rating (0 to 100 scale, 0 is no effect, 100 is complete control) (barnyardgrass [1]; 125 g ai/ha): 0
- Barnyardgrass plant response rating (barnyardgrass [1]; [21]): 30
- Crabgrass, Large plant response rating (0 to 100 scale) (large (Lg) crabgrass [2]; 125 g ai/ha): 80
- Crabgrass, Large plant response rating (large (Lg) crabgrass [2]; [21]): 100
- Foxtail, Giant plant response rating (0 to 100 scale) (giant foxtail [3]; 125 g ai/ha): 20
- Foxtail, Giant plant response rating (giant foxtail [3]; [21]): 100
- Morningglory plant response rating (0 to 100 scale) (morningglory [4]; 125 g ai/ha): 0
- Morningglory plant response rating (morningglory [4]; [21]): 40
- Pigweed plant response rating (0 to 100 scale) (pigweed [5]; 125 g ai/ha): 80
- Pigweed plant response rating (pigweed [5]; [21]): 100
- Velvetleaf plant response rating (0 to 100 scale) (velvetleaf [6]; 125 g ai/ha): 10
- Velvetleaf plant response rating (velvetleaf [6]; [21]): 40
- Wheat plant response rating (0 to 100 scale) (wheat [7]; 125 g ai/ha): 0
- Wheat plant response rating (wheat [7]; [21]): 20
- Corn plant response rating (0 to 100 scale) (corn [8]; 125 g ai/ha): 0
- Corn plant response rating (corn [8]; [21]): 20
- Plant response rating, Barnyardgrass (barnyardgrass [9]; [22]): 0
- Plant response rating, Barnyardgrass (barnyardgrass [9]; [21]): 30
- Plant response rating, Crabgrass, Large (large (Lg) crabgrass [10]; [22]): 10
- Plant response rating, Crabgrass, Large (large (Lg) crabgrass [10]; [21]): 40
- Plant response rating, Foxtail, Giant (giant foxtail [11]; [22]): 0
- Plant response rating, Foxtail, Giant (giant foxtail [11]; [21]): 60
- Plant response rating, Morningglory (morningglory [12]; [22]): 30
- Plant response rating, Morningglory (morningglory [12]; [21]): 40
- Plant response rating, Pigweed (pigweed [13]; [22]): 80
- Plant response rating, Pigweed (pigweed [13]; [21]): 100
- Plant response rating, Velvetleaf (velvetleaf [14]; [22]): 30
- Plant response rating, Velvetleaf (velvetleaf [14]; [21]): 80
- Plant response rating, Wheat (wheat [15]; [22]): 0
- Plant response rating, Wheat (wheat [15]; [21]): 20
- Plant response rating, Corn (corn [16]; [22]): 0
- Plant response rating, Corn (corn [16]; [21]): 30
- Plant response rating, Rice (rice): 0
- Plant response rating, Sedge, Umbrella (sedge, umbrella): 0
- Plant response rating, Ducksalad (Heteranthera limosa): 0
- Plant response rating, Barnyardgrass (barnyardgrass [17]): 0

SMILES: CC=Cc1cnn(-c2ccccc2Oc2ncc(Cl)cn2)c1 [Compound 27]
- Plant response rating, Barnyardgrass (barnyardgrass [1]; [18]): 0
- Barnyardgrass plant response rating (barnyardgrass [1]; [19]): 20
- Plant response rating, Crabgrass, Large (large (Lg) crabgrass [2]; [18]): 0
- Crabgrass, Large plant response rating (large (Lg) crabgrass [2]; [19]): 50
- Plant response rating, Foxtail, Giant (giant foxtail [3]; [18]): 0
- Foxtail, Giant plant response rating (giant foxtail [3]; [19]): 40
- Plant response rating, Morningglory (morningglory [4]; [18]): 0
- Morningglory plant response rating (morningglory [4]; [19]): 0
- Plant response rating, Pigweed (pigweed [5]; [18]): 10
- Pigweed plant response rating (pigweed [5]; [19]): 20
- Plant response rating, Velvetleaf (velvetleaf [6]; [18]): 0
- Velvetleaf plant response rating (velvetleaf [6]; [19]): 10
- Plant response rating, Wheat (wheat [7]; [18]): 0
- Wheat plant response rating (wheat [7]; [19]): 0
- Plant response rating, Corn (corn [8]; [18]): 0
- Corn plant response rating (corn [8]; [19]): 0
- Plant response rating, Barnyardgrass (barnyardgrass [9]; [18]): 0
- Plant response rating, Barnyardgrass (barnyardgrass [9]; [20]): 10
- Plant response rating, Crabgrass, Large (large (Lg) crabgrass [10]; [18]): 20
- Plant response rating, Crabgrass, Large (large (Lg) crabgrass [10]; [20]): 60
- Plant response rating, Foxtail, Giant (giant foxtail [11]; [18]): 0
- Plant response rating, Foxtail, Giant (giant foxtail [11]; [20]): 30
- Plant response rating, Morningglory (morningglory [12]; [18]): 10
- Plant response rating, Morningglory (morningglory [12]; [20]): 50
- Plant response rating, Pigweed (pigweed [13]; [18]): 60
- Plant response rating, Pigweed (pigweed [13]; [20]): 70
- Plant response rating, Velvetleaf (velvetleaf [14]; [18]): 50
- Plant response rating, Velvetleaf (velvetleaf [14]; [20]): 70
- Plant response rating, Wheat (wheat [15]; [18]): 0
- Plant response rating, Wheat (wheat [15]; [20]): 0
- Plant response rating, Corn (corn [16]; [18]): 0
- Plant response rating, Corn (corn [16]; [20]): 10
- Plant response rating, Rice (rice): 0
- Plant response rating, Sedge, Umbrella (sedge, umbrella): 75
- Plant response rating, Ducksalad (Heteranthera limosa): 75
- Plant response rating, Barnyardgrass (barnyardgrass [17]): 0
